The target of data set [1] is T1, PhMqnE (MqnE from Pedobacter heparinus) (Pedobacter heparinus, UniProt C6XW09). The experiment in a line: PhMqnE competition / inhibition assay (AF formation). Type of data set: biochemical. The method, then:
(§1) FIGS. 2(a), 2(b) and 2(c) illustrate inhibition studies of MqnE. […] Assays contained 0.5 μM of PhMqnE, 1 mM SAM, 1 mM DHC, and 2-FDHC varied from 5 μM to 2 mM.
(§2) The mqnE gene from Pedobacter heparinus (PhMqnE) was coexpressed together with the pPH151 plasmid, which contains the suf operon from E. coli under the control of a T7 promoter, to promote proper FeS cluster assembly in PhMqnE. […] It was surmised that positioning fluorine atoms around the aromatic ring of DHC would stabilize the captodative radical intermediate 1 by preventing it from converting to intermediate 2 in FIG. 1(a), thereby acting as a mechanism-based inhibitor and trapping the enzyme in an intermediate state. DHC analogues were synthesized with fluorine at the 2, 4, 5, and 2,4 positions of DHC (FIG. 1 (b)).

For data set [2], the target named is T1, PhMqnE (MqnE from Pedobacter heparinus). The experiment in a line: PhMqnE substrate kinetics / turnover of DHC analogues. It is filed as biochemical. The method, then:
as §1, §2

The test system of the next data set is Helicobacter pylori (Hp). The experiment in a line: Hp growth inhibition in liquid culture (OD600). Type of data set: cell-based. The method, then: Inhibition was determined by measuring the OD600 of liquid cultures incubated at 37° C. for 48 hours.
(§3) Hp grows under microanaerobic conditions in the human gut, where over population can lead to ulcers and cancer. Based on the K results described above, the effects of 2F-DHC were examined on the growth of Hp in BHI medium supplemented with 10% fetal bovine serum and Hp selective supplement (DENT supplement) in 96-well plate format. Growth of Hp was detected by measuring the optical density of the media at 600 nm after 72 hr of growth at 37° C. […] To determine if 2F-DHC inhibits Hp growth by specifically blocking the action of MqnE in the futalosine pathway, it was tested whether the product of MqnE, AF, could rescue Hp growth in the presence of 2F-DHC.

A further data set relates to Escherichia coli. Description: E. coli growth in minimal media (OD600). It is filed as cell-based. Particulars: 1 μL of 100 mM 2F-DHC in 100 μL minimal media, OD600 at 2, 3 and 4 hr.
Source text: (§4) FIGS. 4(a) and 4(b) illustrate E. coli and HEK293T cell growth in the presence of 2F-DHC.
as §3
(§5) As shown in FIG. 4(a), an overnight culture of E. coli was diluted 1:25 into 100 μL of minimal media with either 1 μL of DMSO (no DHC control) or 1 μL of 100 mM 2F-DHC in DMSO in a 96-well plate. The plate was shaken at 37° C. and monitored for at 2, 3, and 4 hr post inoculation by measuring the OD600. […] Cell growth and viability were measured with an automated cell counter after staining with tryptan blue (Countess, Life Technologies).

The test system of the next data set is HEK293T cells. Description: HEK293T cell growth and viability. Type of data set: cell-based, human. Particulars: 1 mM 2F-DHC, 24 and 48 hr culture. The method, then: as §4, §5
Substrate in data set [3]: C=C(Oc1cccc(C(=O)O)c1)C(=O)O
Description: PhMqnE substrate kinetics / turnover of DHC analogues. It is filed as biochemical, Pedobacter heparinus. The conditions noted are these: other: purified PhMqnE, dithionite (DT) as electron source.

Where [4] appears, read: media supplemented with 1 mM AF, 48 hr.

“Also recorded” adds a separate entry of the source.

Usually Ki stands for the dissociation constant of the complex between target and ligand, obtained from inhibition or displacement. Low readings indicate higher affinity, high ones lower affinity. Broadly, the IC50 is the concentration at which inhibition is half-maximal. Low readings indicate greater potency, high ones weaker potency. In general, inhibition refers to the change of the read-out against control, counted positive when it falls. On to `C=C(Oc1cccc(C(=O)O)c1F)C(=O)O` [2F-DHC], for which, in data set [1] (250 μM inhibitor, 0.5 μM PhMqnE, 1 mM SAM, 1 mM DHC), the “inhibition of AF production” value is given as “almost completely inhibited”. Besides, the “rate of AF formation in the presence of inhibitor” value in data set [1] (competition assay, 2 mM DHC + 2 mM analogue, 3.5 min^−1 without analogues) came out at 0.2 min⁻¹. In data set [1] (fit to non-linear competitive inhibition equation, 0.5 μM PhMqnE, 1 mM SAM, 1 mM DHC), this molecule showed a Ki of approximately 2 µM. For the same molecule, the “fold slower product formation than with DHC as substrate” value in data set [2] (2 mM SAM and 2 mM 2F-DHC) was approximately 10 fold. In data set [2] (2 mM SAM and 2 mM analogue as sole substrate), the “rate of conversion to fluorinated AF product” value is 0.41 min⁻¹. In addition, the IC90 in the data set on Helicobacter pylori (Hp) (Helicobacter pylori, 72 hr, read-out: minimal inhibitory concentration that restricts >90% of the growth (IC90)) is less than 23 µg/mL. The midpoint of inhibition in the data set with Helicobacter pylori (Hp) (Helicobacter pylori, BHI medium, 10% FBS, OD600 after 72 hr at 37° C.), the IC50, lay at 31.8 ± 2.5 µM. The molecule further came in with an inhibition at 30 µM with Helicobacter pylori (Hp) (Helicobacter pylori, at ˜30 μM (6 pg/mL), 72 hr) of approximately 50%. Further, the “growth of Hp” value in the data set with Helicobacter pylori (Hp) (at 1 mM, 48 hr) was “completely inhibits growth; also recorded: fully inhibited”; in the data set on Helicobacter pylori (Hp) (at, 72 hr), “completely inhibited”. In the data set on Escherichia coli, the “effect on growth of E. coli” value is on record as “no effect; also recorded: No difference in growth is observed”. Also, the “effect on HEK293T cell growth and viability” value in the data set with HEK293T cells is on record as “No difference in growth is observed”.
For the molecule `Nc1ncnc2c1ncn2[C@@H]1O[C@H](CCC(=O)c2cccc(C(=O)O)c2)[C@@H](O)[C@H]1O` [AF, aminofutalosine, reference compound], in the data set on Helicobacter pylori (Hp) (setting [4]), the “OD600 of Hp culture in the presence of 1 mM 2F-DHC” value is on record as approximately 0.28 and the “rescue of Hp growth in the presence of 1 mM 2F-DHC” value is listed as “fully restored; also recorded: can restore growth”.
A word on the Km: it is the concentration of substrate that gives half-maximal velocity. With `C[S+](CC[C@H](N)C(=O)[O-])C[C@H]1O[C@@H](n2cnc3c(N)ncnc32)[C@H](O)[C@@H]1O` (stereo partly drawn) [SAM, S-adenosyl-L-methionine, reference compound], the Km in data set [2] (purified PhMqnE, dithionite (DT) as electron source) turned out to be 21 µM.

B1: PhMqnE (MqnE from Pedobacter heparinus) (Pedobacter heparinus DSM 2366) (protein)
chain: MDTTSKLALILADADLPAALKAIALKVQNQERITFDEGVYLYENAELGYLGVLANYIREQKHGDNTYFNRNFHIEPTNVCVYDCKFCSYSRLIKQKEEGWEMSVDGMMEVLKKYDHEPVTEVHITGGVVPKQNLEFYSDFFRRAKAHRPELHIKALTPVEYYYIFKKAKLSHYDGMKYMQEAGLDSMPGGGAEIFHPEVREKIAHDKCNAEQWLDIHEQAHKLGMKTNATMLYGHIEQFWHRVDHMERLRRQQDKTGGFQAFIPLKFRNQHNQMDHVPEVSVIEDLRNYAIARIYMDNFDHIKAYWAMISRQTAQLSLNFGVDDIDGTLDDTTKIYSMAGAEEQHPAMSTRDLVDLIKQVKRKPIERDTLYNVVTDYSQVTFEDEVKPQYYKLPVIN
B1: the Michaelis constant (Km) in data set [3] came out at 72 µM.
